Results published in PubChem BioAssay AID437 (SGCStoCompounds, 2006).

These compounds were tested against Inositol-trisphosphate 3-kinase C (Homo sapiens) (UniProt Q96DU7) (assay: IP3 3-kinase C ligand binding via Tm shift – biophysical, DSF, SYPRO orange, purified human protein (AID 437)). Settings: DSF thermal shift, at 20 µM, protein 5.9 µM, buffer 300 mM NaCl, 50 mM Hepes, 10% glycerol, 2 mM TCEP pH 7.5, stronger effect = higher value.
Chain of Inositol-trisphosphate 3-kinase C (Homo sapiens) (Q96DU7 whole entry, looked up): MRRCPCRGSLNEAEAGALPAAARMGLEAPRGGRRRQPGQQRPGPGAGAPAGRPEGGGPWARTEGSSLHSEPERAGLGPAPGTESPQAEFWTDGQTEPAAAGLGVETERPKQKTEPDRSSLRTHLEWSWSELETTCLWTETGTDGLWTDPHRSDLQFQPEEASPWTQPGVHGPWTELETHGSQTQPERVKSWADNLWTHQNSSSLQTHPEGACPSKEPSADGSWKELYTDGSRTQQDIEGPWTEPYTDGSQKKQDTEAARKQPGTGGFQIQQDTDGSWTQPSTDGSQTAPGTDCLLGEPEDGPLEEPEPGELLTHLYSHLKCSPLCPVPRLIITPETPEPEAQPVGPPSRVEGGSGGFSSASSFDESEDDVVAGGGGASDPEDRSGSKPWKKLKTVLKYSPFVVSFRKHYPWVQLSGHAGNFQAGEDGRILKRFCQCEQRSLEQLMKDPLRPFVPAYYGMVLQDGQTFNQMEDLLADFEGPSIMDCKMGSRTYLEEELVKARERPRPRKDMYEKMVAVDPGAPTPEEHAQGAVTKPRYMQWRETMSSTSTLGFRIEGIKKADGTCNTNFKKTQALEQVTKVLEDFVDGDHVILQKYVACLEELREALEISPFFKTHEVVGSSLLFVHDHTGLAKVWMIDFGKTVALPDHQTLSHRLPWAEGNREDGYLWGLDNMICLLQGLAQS

Row | Tm shift [Celsius] | SMILES
1 | 5.6 | C=S(C)c1ccc(CSc2nc(-c3ccc(F)cc3)c(-c3ccncc3)[nH]2)cc1 (configuration not stated)
2 | 5.2 | NC1=CC2N=CN=C(Nc3cccc(Br)c3)C2C=C1N (configuration not stated)
3 | 4.7 | Nc1ncnc2c1C(I)CN2[C@@H]1O[C@H](CO)C(O)C1O (some centres not stated)
4 | 3 | NC1=N/C(=C2/CCNC(=O)c3[nH]c(Br)cc32)C(=O)N1
5 | 3.3 | CC(C)(C)c1nc2c3cc[nH]c(=O)c3c3cc(F)ccc3c2[nH]1
6 | 3.1 | O=C1Cc2c([nH]c3ccc(Br)cc23)-c2ccccc2N1
7 | 3.3 | O=c1c(-c2ccc(O)cc2)coc2cc(O)cc(O)c12
8 | 4.2 | CCOc1cc(/C=C(\C#N)CON)cc(CSc2ccccc2)c1O
9 | 13.3 | O=C1c2c(O)cc(O)cc2OC(c2ccc(O)c(O)c2)C1O (configuration not stated)
10 | 3.7 | NC(O)(O)c1ccc(N=Nc2c(O)[nH]c3ccc(Cl)cc23)cc1
11 | 4.6 | Brc1c(Br)c(Br)c2n[nH]nc2c1Br
12 | 4.4 | Oc1ccc(-c2nc(-c3ccc(F)cc3)c(-c3ccncc3)[nH]2)cc1
13 | 3.2 | CN(C)S(O)(O)c1ccc2c(c1)/C(=C/c1cc3c([nH]1)CCCC3)C(=O)N2
14 | 10.4 | O=C1Nc2ccc(I)cc2/C1=C/c1cc(Br)c(O)c(Br)c1
15 | 6.6 | COC1=CC(/C=C/C(=O)CC(=O)/C=C/c2ccc(O)c(OC)c2)=CCC1O (configuration not stated)
16 | 5.7 | CNC(=O)c1cc(Oc2ccc(NC(=O)Nc3ccc(C)c(C(F)(F)F)c3)cc2)ccn1
17 | 6.4 | O=c1c2ccccc2[nH]c(=S)n1CCN1CCC(=C(c2ccc(F)cc2)c2ccc(F)cc2)CC1
